From patent publication US10278911B2, “Compositions containing cyclic peptides and methods of use” (Merck Patent GmbH, priority 2008, dated 2019)
Non-standard residues stand in square brackets, D forms with d. Residues, ends and D or L forms follow the SMILES beside them.

What was measured:
integrin αVβ3 = integrin αVβ3 (Homo sapiens, UniProt P05106+P06756); assay: Isolated integrin-ligand binding assay (ligand inhibition, immobilized integrin, biotinylated vitronectin); conditions: immobilized recombinant human integrin, biotinylated human serum vitronectin as ligand
Protocol: i) Isolated Integrin-Ligand Binding Assay The production of recombinant human integrin is known in the literature. […] In brief, 96-well ELISA plates are coated by adsorption from neutral aqueous buffers of 1 microg/ml integrin. After blocking residual sites on the plate with BSA, biotinylated ligands (1 microg/ml) are added in the presence or absence of serial dilutions of inhibitor, and after incubation and washing, bound biotin is detected with peroxidase-coupled anti-biotin antibody and TMB substrate.

[1] = target: T1, vitronectin receptor aVβ3 (Homo sapiens, UniProt P05106+P06756); assay: Pentapeptides as inhibitors of αVβ3 (immobilized), solid-phase inhibition assay; conditions: αVβ3 from human placental extracts, binding of vitronectin, read-out: IC50 VN: αvβ3
T1 construct: Integrin αVβ3 is purified from human placental extracts; from tissue; host or cells: human placenta (extracts)
Protocol: Preparation and Characterization of Integrin αVβ3: Integrin αVβ3 is purified from human placental extracts by affinity chromatography on GRGDSPK peptide. Extraction and chromatography follows previously published protocols except that Triton X-100 is replaced by 25 mM octyl-P-D-glucopyranoside. Bound integrin is eluted with 10 mM EDTA into 1.5-ml vials containing 25 pl of 1 M MgCl, and concentrated in Centricon 100 microconcentrators. They are stored at 4° C. in neutral buffer containing 25 mM octyl glucoside, and 0.05% sodium azide. Protein concentrations were determined by a micro BCA assay (Pierce).
Solid-phase inhibition assays are established for the inhibition of binding of the vitronectin receptor aVβ3 to their corresponding protein ligands by the cyclic peptides. Inhibitory activities (IC50) of cyclic RGD containing peptides for the binding of vitronectin (VN). Integrins are used as immobilized ligands.

human placental αVβ3 = target: T2, human placental αVβ3 (Homo sapiens, UniProt P05106+P06756); assay: Receptor inhibition assay, binding of biotinylated ligands to human placental αVβ3; conditions: purified human placental αVβ3, biotinylated vitronectin, 3 h at 30° C.; read-out: IC50 VN: αvβ3
T2 construct: Purified human integrin αVβ3 from term placenta; from tissue; host or cells: human term placenta
Protocol: After 3 h at 30° C. bound ligand was measures by anti-biotin—alkaline phosphatase detection.

[2] = test system: full thickness skin model (human primary epidermal keratinocytes and human fibroblasts); assay: cDNA-microarray gene expression profile of treated human skin model (PIQOR-skin); type: cell-based; conditions: 0.5 μM, 4 days incubation
Protocol: The following is a study to determine the gene expression profiles of Cyclo-(Arg-Gly-Asp-DPhe-Acha) (=CPPC 1) treated human skin.
For the analysis of deregulated gene expression induced by substance CPPC 1, treated and control samples from a human skin model are analyzed as follows: • A full thickness skin model (human primary epidermal keratinocytes and human fibroblasts), such as the Phenion® FTSM, commercially available from Phenion GmbH & Co. KG, Düsseldorf, Germany, is used. Cells are not pooled or genetically modified. • Gene expression analysis is carried out with PIQOR™-skin cDNA microarrays, which contains 1312 genes that are involved in target pathways related to stress, inflammation, pigmentation and depigmentation, moisturization, anti-ageing and hair follicle development in humans. For instance, cell cycle, apoptosis, DNA repair, oxidative metabolism, angiogenesis, cell adhesion cell-matrix interactions and signaling. Genes are represented with four replicate spots. • Treatment with CPPC 1 is performed in 0.5 μM concentration (4 days incubation, n=3 per condition). […] Profiling of Gene Expression—Input Genes
A ratio (log 2) value of zero indicates no regulation, whereas positive (log 2) values indicate an upregulation and negative (log 2) values a downregulation of the relevant gene.
The deregulated genes for skin samples treated with 0.5 μM concentration is used for further analysis.

av-beta3/5 = assay: Integrin ligand activity (in vitro studies); type: binding
av-beta6 = av-beta6 (Homo sapiens, UniProt P06756+P18564); assay: Integrin ligand activity (in vitro studies); type: binding
av-beta6, sequence (P06756 31-1048): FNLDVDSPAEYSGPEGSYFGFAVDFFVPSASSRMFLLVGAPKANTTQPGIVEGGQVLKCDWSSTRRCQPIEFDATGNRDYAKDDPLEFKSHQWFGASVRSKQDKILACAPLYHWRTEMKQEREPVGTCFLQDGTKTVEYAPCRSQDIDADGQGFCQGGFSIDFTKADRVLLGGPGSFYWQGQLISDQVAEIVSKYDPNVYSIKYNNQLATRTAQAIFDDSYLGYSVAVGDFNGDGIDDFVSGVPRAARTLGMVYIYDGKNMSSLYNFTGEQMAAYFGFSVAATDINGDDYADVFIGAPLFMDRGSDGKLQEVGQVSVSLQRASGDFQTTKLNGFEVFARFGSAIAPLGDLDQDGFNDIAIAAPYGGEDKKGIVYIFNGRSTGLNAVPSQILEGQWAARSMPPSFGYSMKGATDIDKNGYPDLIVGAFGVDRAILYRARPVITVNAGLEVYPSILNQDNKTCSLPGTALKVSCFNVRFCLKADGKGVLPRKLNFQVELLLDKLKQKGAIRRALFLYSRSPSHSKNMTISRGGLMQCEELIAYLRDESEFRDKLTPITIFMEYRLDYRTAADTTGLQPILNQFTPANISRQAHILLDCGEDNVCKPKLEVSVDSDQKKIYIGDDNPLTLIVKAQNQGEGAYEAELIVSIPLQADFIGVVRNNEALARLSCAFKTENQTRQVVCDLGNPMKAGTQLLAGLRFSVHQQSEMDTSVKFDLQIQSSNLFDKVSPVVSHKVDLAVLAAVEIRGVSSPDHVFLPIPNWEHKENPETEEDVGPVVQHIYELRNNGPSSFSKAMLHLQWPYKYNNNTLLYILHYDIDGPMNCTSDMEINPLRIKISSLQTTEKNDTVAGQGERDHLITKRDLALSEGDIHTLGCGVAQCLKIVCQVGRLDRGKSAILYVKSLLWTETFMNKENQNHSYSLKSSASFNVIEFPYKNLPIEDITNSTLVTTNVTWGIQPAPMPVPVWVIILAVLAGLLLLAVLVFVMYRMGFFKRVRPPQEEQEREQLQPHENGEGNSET
av-beta6, sequence (P18564 22-788): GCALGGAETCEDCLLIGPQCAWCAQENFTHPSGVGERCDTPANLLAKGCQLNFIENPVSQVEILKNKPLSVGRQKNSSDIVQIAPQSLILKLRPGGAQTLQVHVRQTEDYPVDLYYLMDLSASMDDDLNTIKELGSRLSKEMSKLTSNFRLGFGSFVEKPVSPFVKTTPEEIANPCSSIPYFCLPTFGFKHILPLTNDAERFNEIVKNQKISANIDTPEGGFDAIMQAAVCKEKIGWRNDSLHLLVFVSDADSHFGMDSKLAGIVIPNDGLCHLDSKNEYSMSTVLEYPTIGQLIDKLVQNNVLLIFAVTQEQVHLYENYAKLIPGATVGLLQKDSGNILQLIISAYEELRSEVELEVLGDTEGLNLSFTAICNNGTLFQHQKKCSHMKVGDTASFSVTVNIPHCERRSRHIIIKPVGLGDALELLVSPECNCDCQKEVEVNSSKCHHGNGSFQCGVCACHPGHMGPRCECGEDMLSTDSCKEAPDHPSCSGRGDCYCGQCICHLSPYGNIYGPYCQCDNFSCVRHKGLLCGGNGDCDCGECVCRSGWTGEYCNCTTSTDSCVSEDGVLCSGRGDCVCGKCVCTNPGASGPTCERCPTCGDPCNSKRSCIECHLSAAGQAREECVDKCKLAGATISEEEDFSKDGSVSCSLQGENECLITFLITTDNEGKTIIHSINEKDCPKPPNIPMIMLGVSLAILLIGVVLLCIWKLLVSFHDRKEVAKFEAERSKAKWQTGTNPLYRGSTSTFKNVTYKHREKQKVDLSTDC

integrin αVβ3, sequence (P06756 31-1048): as the sequence (P06756 31-1048) above
integrin αVβ3, sequence (P05106 27-788): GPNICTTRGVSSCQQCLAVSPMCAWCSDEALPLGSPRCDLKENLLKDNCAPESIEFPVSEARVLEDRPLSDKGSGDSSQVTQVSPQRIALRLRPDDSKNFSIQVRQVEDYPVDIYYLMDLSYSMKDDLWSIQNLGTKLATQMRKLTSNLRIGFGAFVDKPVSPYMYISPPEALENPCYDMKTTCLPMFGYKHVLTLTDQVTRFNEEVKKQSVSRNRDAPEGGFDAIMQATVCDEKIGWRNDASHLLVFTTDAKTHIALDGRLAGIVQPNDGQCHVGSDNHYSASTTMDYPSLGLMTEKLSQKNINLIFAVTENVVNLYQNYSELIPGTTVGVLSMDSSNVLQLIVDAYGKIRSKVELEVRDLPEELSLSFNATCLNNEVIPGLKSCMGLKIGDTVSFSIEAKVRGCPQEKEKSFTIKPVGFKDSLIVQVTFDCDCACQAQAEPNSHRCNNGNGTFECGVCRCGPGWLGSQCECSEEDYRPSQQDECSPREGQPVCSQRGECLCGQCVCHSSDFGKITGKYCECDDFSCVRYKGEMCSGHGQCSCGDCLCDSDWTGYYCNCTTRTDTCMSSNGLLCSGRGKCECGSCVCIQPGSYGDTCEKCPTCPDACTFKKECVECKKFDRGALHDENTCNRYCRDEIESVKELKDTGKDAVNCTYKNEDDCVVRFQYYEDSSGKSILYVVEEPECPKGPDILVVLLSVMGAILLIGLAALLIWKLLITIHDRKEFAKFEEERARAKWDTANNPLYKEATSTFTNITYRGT
T1 sequence (P06756 31-889 limits assumed): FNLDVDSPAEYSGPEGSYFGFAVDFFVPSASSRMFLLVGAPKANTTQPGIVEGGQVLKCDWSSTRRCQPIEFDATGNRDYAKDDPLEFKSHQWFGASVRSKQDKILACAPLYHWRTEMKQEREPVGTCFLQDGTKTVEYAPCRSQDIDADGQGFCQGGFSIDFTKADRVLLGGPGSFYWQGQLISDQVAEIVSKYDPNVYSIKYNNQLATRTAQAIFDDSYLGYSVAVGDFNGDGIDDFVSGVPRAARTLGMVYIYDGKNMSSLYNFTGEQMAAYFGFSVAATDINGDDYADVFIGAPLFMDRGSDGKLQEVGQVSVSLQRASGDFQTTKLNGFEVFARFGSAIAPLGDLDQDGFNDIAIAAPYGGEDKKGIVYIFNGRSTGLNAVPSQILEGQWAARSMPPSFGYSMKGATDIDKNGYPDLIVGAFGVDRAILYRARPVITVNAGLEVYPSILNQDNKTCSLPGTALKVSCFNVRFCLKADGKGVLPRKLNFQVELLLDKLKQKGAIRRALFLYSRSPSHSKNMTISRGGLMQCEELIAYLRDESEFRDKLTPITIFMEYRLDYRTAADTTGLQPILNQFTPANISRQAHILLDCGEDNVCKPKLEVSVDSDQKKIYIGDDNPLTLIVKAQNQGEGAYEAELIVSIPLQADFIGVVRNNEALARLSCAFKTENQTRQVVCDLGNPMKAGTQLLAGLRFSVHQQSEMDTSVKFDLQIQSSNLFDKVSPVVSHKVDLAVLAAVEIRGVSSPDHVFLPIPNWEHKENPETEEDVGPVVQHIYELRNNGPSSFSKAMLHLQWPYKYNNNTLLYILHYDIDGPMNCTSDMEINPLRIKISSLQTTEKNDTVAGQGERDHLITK
T1 sequence (P06756 891-1048 partner limits assumed): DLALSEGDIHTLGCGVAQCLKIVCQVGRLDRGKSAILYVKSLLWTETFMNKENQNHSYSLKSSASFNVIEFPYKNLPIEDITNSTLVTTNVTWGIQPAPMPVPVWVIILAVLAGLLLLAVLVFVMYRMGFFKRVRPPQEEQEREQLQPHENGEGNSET
T1 sequence (P05106 27-788): as the sequence (P05106 27-788) above
T2 sequence (P06756 31-889 limits assumed): as the sequence (P06756 31-889 limits assumed) above
T2 sequence (P06756 891-1048 partner limits assumed): as the sequence (P06756 891-1048 partner limits assumed) above
T2 sequence (P05106 27-788): as the sequence (P05106 27-788) above

Question: For C[C@H]1C(=O)N[C@@H](CCCNC(=N)N)C(=O)NCC(=O)N[C@@H](CC(=O)O)C(=O)N[C@H](Cc2ccccc2)C(=O)N1C [Cyclo-(Arg-Gly-Asp-DPhe-(NMe)Ala)], which IC50 (integrin αVβ3) is on record?
Answer: Its IC50 is 24 nM.

Question: How did the IC50 [1] turn out when CC(C)[C@@H]1NC(=O)[C@H](Cc2ccccc2)NC(=O)[C@H](CC(=O)O)NC(=O)[C@@H](C)NC(=O)[C@H](CCCNC(=N)N)NC1=O [Cyclo-(Arg-DAla-Asp-Phe-Val)] (cyclo(R[dA]DFV)) was run?
Answer: The IC50 was greater than 240000 nM.

Question: With CC(C)(C)[C@@H]1NC(=O)[C@@H](Cc2ccc(F)cc2)NC(=O)[C@H](CC(=O)O)NC(=O)CNC(=O)[C@H](CCCNC(=N)N)NC1=O [Cyclo-(Arg-Gly-Asp-DPhe(4-F)-Tle)] as the compound, how does the IC50 (human placental αVβ3) read?
Answer: Its IC50 is 3 nM.

Question: Which “ADAM9 gene expression, Compound vs. Control, ratio Log(2) value” [2] does the source give for N=C(N)NCCC[C@@H]1NC(=O)C2(CCCCC2)NC(=O)[C@@H](Cc2ccccc2)NC(=O)[C@H](CC(=O)O)NC(=O)CNC1=O [CPPC 1, Cyclo-(Arg-Gly-Asp-DPhe-Acha)] here?
Answer: Its value is 0.4854.

Question: And the “ASC gene expression, Compound vs. Control, ratio Log(2) value” [2]?
Answer: The value was −0.304.

Question: And the “BCL2L1 gene expression, Compound vs. Control, ratio Log(2) value” [2]?
Answer: Its value is 0.263.

Question: And the “BMP-3 gene expression in treated skin” value [2]?
Answer: Its value is “downregulated”.

Question: What about the “C19orf10 gene expression, Compound vs. Control, ratio Log(2) value” [2] of the same compound?
Answer: Its value is 0.263.

Question: What about the “CASP8 gene expression, Compound vs. Control, ratio Log(2) value” [2] of the same compound?
Answer: The value was −0.304.

Question: What about the “CCNB2 gene expression, Compound vs. Control, ratio Log(2) value” [2] of the same compound?
Answer: The value was 0.4647.

Question: And the “CD81 gene expression, Compound vs. Control, ratio Log(2) value” [2]?
Answer: The value was 0.251.

Question: What about the “CDK2 gene expression, Compound vs. Control, ratio Log(2) value” [2] of the same compound?
Answer: The value was 0.2265.

Question: And the “CDK4 gene expression, Compound vs. Control, ratio Log(2) value” [2]?
Answer: Its value is 0.1375.

Question: What about the “CLU gene expression, Compound vs. Control, ratio Log(2) value” [2] of the same compound?
Answer: Its value is 0.4436.

Question: And the “DDR2 gene expression, Compound vs. Control, ratio Log(2) value” [2]?
Answer: Its value is 0.2869.

Question: And the “E2F3 gene expression, Compound vs. Control, ratio Log(2) value” [2]?
Answer: Its value is −0.3959.

Question: What about the “EGF gene expression, Compound vs. Control, ratio Log(2) value” [2] of the same compound?
Answer: The value was −0.2345.

Question: What about the “ELA2 gene expression, Compound vs. Control, ratio Log(2) value” [2] of the same compound?
Answer: Its value is −0.2345.

Question: What about the “FBLN1_4 gene expression, Compound vs. Control, ratio Log(2) value” [2] of the same compound?
Answer: The value was 0.516.

Question: What about the “FBLN2 gene expression, Compound vs. Control, ratio Log(2) value” [2] of the same compound?
Answer: Its value is 0.3785.

Question: What about the “FGF1 gene expression, Compound vs. Control, ratio Log(2) value” [2] of the same compound?
Answer: Its value is 0.5059.

Question: What about the “FLOT2 gene expression, Compound vs. Control, ratio Log(2) value” [2] of the same compound?
Answer: The value was 0.4542.

Question: And the “GDF10 gene expression, Compound vs. Control, ratio Log(2) value” [2]?
Answer: Its value is −0.2863.

Question: What about the “IGFBP4 gene expression, Compound vs. Control, ratio Log(2) value” [2] of the same compound?
Answer: The value was 0.4854.

Question: And the “IL2 gene expression, Compound vs. Control, ratio Log(2) value” [2]?
Answer: The value was −0.5778.

Question: What about the “IL6 gene expression, Compound vs. Control, ratio Log(2) value” [2] of the same compound?
Answer: Its value is 0.4854.

Question: What about the “IL7 gene expression, Compound vs. Control, ratio Log(2) value” [2] of the same compound?
Answer: The value was −0.3585.

Question: What about the “IL8 gene expression, Compound vs. Control, ratio Log(2) value” [2] of the same compound?
Answer: The value was 0.3219.

Question: What about the “IL17A gene expression, Compound vs. Control, ratio Log(2) value” [2] of the same compound?
Answer: Its value is −0.6666.

Question: What about the “JUN gene expression, Compound vs. Control, ratio Log(2) value” [2] of the same compound?
Answer: The value was −0.5778.

Question: What about the “KRT2A gene expression, Compound vs. Control, ratio Log(2) value” [2] of the same compound?
Answer: The value was 0.4005.

Question: What about the “KRT9 gene expression, Compound vs. Control, ratio Log(2) value” [2] of the same compound?
Answer: Its value is −0.2688.

Question: What about the “KRT19 gene expression, Compound vs. Control, ratio Log(2) value” [2] of the same compound?
Answer: The value was 0.3334.

Question: What about the “LCN2 gene expression, Compound vs. Control, ratio Log(2) value” [2] of the same compound?
Answer: Its value is −0.5564.

Question: And the “MCL1 gene expression, Compound vs. Control, ratio Log(2) value” [2]?
Answer: Its value is 0.3674.

Question: What about the “PGF gene expression, Compound vs. Control, ratio Log(2) value” [2] of the same compound?
Answer: The value was 0.2141.

Question: What about the “PTGS2 gene expression, Compound vs. Control, ratio Log(2) value” [2] of the same compound?
Answer: The value was 0.4222.

Question: And the “QSOX1 gene expression, Compound vs. Control, ratio Log(2) value” [2]?
Answer: Its value is 0.433.

Question: And the “S100A12 gene expression, Compound vs. Control, ratio Log(2) value” [2]?
Answer: The value was −0.2515.

Question: And the “SDCBP gene expression, Compound vs. Control, ratio Log(2) value” [2]?
Answer: The value was 0.3896.

Question: What about the “SEPRASE gene expression, Compound vs. Control, ratio Log(2) value” [2] of the same compound?
Answer: The value was 0.546.

Question: And the “SOCS1 gene expression, Compound vs. Control, ratio Log(2) value” [2]?
Answer: The value was 0.3334.

Question: What about the “SPARC gene expression, Compound vs. Control, ratio Log(2) value” [2] of the same compound?
Answer: Its value is 0.3674.

Question: What about the “SPRR1A gene expression, Compound vs. Control, ratio Log(2) value” [2] of the same compound?
Answer: Its value is −0.304.

Question: And the “STAT1 gene expression, Compound vs. Control, ratio Log(2) value” [2]?
Answer: The value was 0.3103.

Question: And the “STAT5B gene expression, Compound vs. Control, ratio Log(2) value” [2]?
Answer: Its value is −0.1844.

Question: What about the “TNF gene expression, Compound vs. Control, ratio Log(2) value” [2] of the same compound?
Answer: The value was −0.304.

Question: What about the “TNFC gene expression, Compound vs. Control, ratio Log(2) value” [2] of the same compound?
Answer: The value was −0.3401.

Question: What about the “TNFRSF1B gene expression, Compound vs. Control, ratio Log(2) value” [2] of the same compound?
Answer: The value was −0.3585.

Question: And the “TNFRSF25 gene expression, Compound vs. Control, ratio Log(2) value” [2]?
Answer: Its value is −0.2688.

Question: What about the “TNFSF10 gene expression, Compound vs. Control, ratio Log(2) value” [2] of the same compound?
Answer: The value was −0.2688.

Question: And the “TNFSF13B gene expression, Compound vs. Control, ratio Log(2) value” [2]?
Answer: The value was −0.2688.

Question: What about the “TUBB gene expression, Compound vs. Control, ratio Log(2) value” [2] of the same compound?
Answer: Its value is 0.6599.

Question: And the “TXLN gene expression, Compound vs. Control, ratio Log(2) value” [2]?
Answer: Its value is −0.8365.

Question: And the “bone morphogenic proteins (BMPs) gene expression in treated skin” value [2]?
Answer: Its value is “downregulated”.

Question: And the “fibulins gene expression in treated skin” value [2]?
Answer: Its value is “upregulated”.

Question: And the “number of deregulated genes selected (of 1312 genes on the microarray)” value ([2]; p<0.05, at least […] deregulation)?
Answer: The value was 345.

Question: What about the “activity as av-beta3/5 ligand” value (av-beta3/5) of the same compound?
Answer: The value was “highly active”.

Question: What about the “activity as av-beta6 ligand” value (av-beta6) of the same compound?
Answer: Its value is “low active”.
